Laboratory results reported in paper PMC4281095 (Journal of Medicinal Chemistry, 2014).

Key:
CpIMPDH [1] = biological target: T1, CpIMPDH (Cryptosporidium parvum, UniProt Q8T6T2); assay: CpIMPDH inhibition, NADH production monitored by fluorescence; settings: for fold increase in CpIMPDH activity: relative to 8a; for CpIMPDH inhibition, result in words: qualitative statement; for fold loss of CpIMPDH potency / inhibition: relative to 8k
T1 sequence (Q8T6T2 1-400): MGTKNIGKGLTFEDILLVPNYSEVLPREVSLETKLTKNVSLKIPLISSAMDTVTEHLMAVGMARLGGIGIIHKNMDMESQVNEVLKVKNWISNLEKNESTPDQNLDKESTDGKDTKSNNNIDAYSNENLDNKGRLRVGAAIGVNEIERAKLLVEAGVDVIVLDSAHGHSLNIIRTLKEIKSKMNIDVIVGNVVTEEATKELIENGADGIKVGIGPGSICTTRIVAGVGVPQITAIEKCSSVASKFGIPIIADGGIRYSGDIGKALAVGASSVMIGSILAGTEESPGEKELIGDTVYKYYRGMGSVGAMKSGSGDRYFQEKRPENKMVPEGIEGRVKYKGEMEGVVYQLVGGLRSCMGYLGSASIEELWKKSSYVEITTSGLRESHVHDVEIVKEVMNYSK

hIMPDH2 = hIMPDH2 (Homo sapiens, UniProt P12268); assay: Assessment of hIMPDH2 inhibition, NADH production; type: biochemical; settings: read-out: hIMPDH2 inhibition
hIMPDH1 = settings: read-out: hIMPDH1 Ki; cited from earlier work
CpIMPDH [2] = biological target: T1, CpIMPDH; settings: read-out: CpIMPDH IC50; cited from earlier work

Row | Structure (SMILES) | CpIMPDH inhibition, result in words (CpIMPDH [1]) | also measured
1 | O=C(Cn1ncc2c(=O)oc3ccccc3c21)Nc1ccc(C(F)(F)F)cc1 [8e] | – | fold increase in CpIMPDH activity (CpIMPDH [1]): 3 fold
2 | O=C(Cn1ncc2c(=O)oc3ccccc3c21)Nc1ccc(F)cc1 [8d] | – | fold increase in CpIMPDH activity (CpIMPDH [1]): 3 fold
3 | COc1cc(N(C)C(=O)Cn2ncc3c(=O)oc4ccccc4c32)ccc1Cl [8l] | loss of activity | –
4 | COc1cc(NC(=O)Cn2ncc3c2-c2ccccc2OC3)ccc1Cl [13e] | – | fold loss of CpIMPDH potency / inhibition (CpIMPDH [1]): 3 fold
5 | COc1cccc(NC(=O)Cn2ncc3c(=O)oc4ccccc4c32)c1 [8a, 4-oxo-N-(3-methoxyphenyl)-[1]benzopyrano[4,3-c]pyrazole-1(4H)-acetamide] | – | inhibition at 5 µM (hIMPDH2): < 20%
6 | O=C(Cn1ncc2c(=O)oc3ccccc3c21)Nc1ccc2[nH]ccc2c1 [13c] | only weak or no inhibitory activity | –
7 | O=C(Cn1ncc2c(=O)oc3ccccc3c21)Nc1ccc(Cl)cc1Cl [8g] | no inhibition activity | –
8 | COc1cc(NC(=O)C(C)n2ncc3c(=O)oc4ccccc4c32)ccc1Cl (centres unmarked) [8m] | – | fold loss of CpIMPDH potency / inhibition (CpIMPDH [1]): 3 fold
9 | O=C(Cn1ncc2c(=O)oc3ccccc3c21)Nc1cccc(Cl)c1 [8b] | loss of inhibition | –
10 | COc1ccc(NC(=O)Cn2ncc3c(=O)oc4ccccc4c32)cc1OC [8i] | loss of enzyme inhibition | –
11 | O=C(Cn1ncc2c(=O)oc3ccccc3c21)Nc1ccccc1Cl [8c] | no inhibitory activity | –
12 | COc1c(C)c2c(c(O)c1C/C=C(\C)CCC(=O)O)C(=O)OC2 [mycophenolic acid] | – | Ki (hIMPDH1): 0.033 µM; IC50 (CpIMPDH [2]): ~10 µM
13 | O=C(Cn1ncc2c(=O)oc3ccccc3c21)Nc1ccc2[nH]cnc2c1 [13a] | only weak or no inhibitory activity | –
